The structures appear in SMILES notation.

Here are results for one compound from patent US20020183305A1 (Schering Corporation, priority 2001, published 2002).

The test concerns Hypercholesterolemic Golden Syrian hamsters. As to the kind of experiment: In vivo efficacy in cholesterol-fed hypercholesterolemic hamsters (plasma cholesterol, plasma triglyceride, hepatic cholesteryl ester).
The mark [1] stands for this setting: cholesterol-fed hamsters, versus Control, Table 1.

Description: Male Golden Syrian hamsters (Charles River Labs, Wilmington, MA) weighing between 100 and 125 g were fed Wayne rodent chow until study onset. At study onset (Day 1) animals were separated into groups (n=4-6/group) and fed chow supplemented with 0.5% by weight of cholesterol (Research Diets Inc., New Brunswick, NJ). The Control and Test compounds were administered once daily for 7 days, starting on Day 1 via oral gavage in 0.2 ml corn oil. Corn oil was used as the Control.
On Day 7, blood was collected into tubes containing ethylenediaminetetraacetic acid (EDTA), and plasma was prepared by low speed centrifugation at 40C. Liver samples (0.5 g) were taken for neutral lipid analyses.
Nonfasted plasma cholesterol levels were determined by a modification of the cholesterol oxidase method, in which the reagents were available in a kit form from Wako Pure Chemicals Industries, Ltd. (Osaka, Japan). […] Assays were carried out at 37° C. for 10 min, along with cholesterol standards (Sigma Chemical Co., St. Louis, Mo.) and the resultant red quinone pigment's absorbance was determined spectrophotometrically at 505 nm.
Samples of liver (0.5 g) were lipid extracted. Lipid extracts were dried under nitrogen into HPLC sample vials, resuspended in hexane and injected onto a Zorbax Sil (4.6×25 cm) silica column. […] Lipids were detected by absorbance at 206 nm and quantitated by computer integration (System Gold, Beckman) of elution profiles. […] Cholesteryl ester content of liver-derived samples was derived from a standard curve constructed using known amounts of cholesteryl oleate.

With `COc1ccc([C@@H]2[C@@H](CCCc3ccccc3)C(=O)N2c2ccc(OC)cc2)cc1` [Compound XII], under setting [1], the “effect on accumulation of hepatic cholesteryl esters (in words)” value is on record as “reduced” and the “effect on plasma cholesterol levels (in words)” value is “reduced”. Moreover, for the setting “male hamsters fed chow with 0.5% cholesterol, oral gavage in corn oil once daily for 7 days, liver Day 7, Compound XII 3 mg/kg/day, niacin 100 mg/kg/day”, the “Hepatic Cholesteryl Ester” value worked out at 12.75 ± 1.12 mg/g. In addition, the “Plasma Cholesterol” value (male hamsters fed chow with 0.5% cholesterol, oral gavage in corn oil once daily for 7 days, nonfasted plasma Day 7, Compound XII 3 mg/kg/day, niacin 100 mg/kg/day) was 214 ± 13 mg/dL. The “Plasma Triglyceride” value (male hamsters fed chow with 0.5% cholesterol, oral gavage in corn oil once daily for 7 days, plasma Day 7, Compound XII 3 mg/kg/day, niacin 100 mg/kg/day) turned out to be 200 ± 30 mg/dL.
